# Data from PubChem BioAssay (NCI).
#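 Compound exposure: 48 hours, 5 concentrations, 96-well plates. At the GI50, growth is halved. Definition used: TGI = concentration required for complete inhibition of growth.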
# Experiments:
# Assay in all cases: NCI-60 cell line screen, 48 h
# A549 NSCLC = test system: A549 NSCLC
# COLO 205 colon = test system: COLO 205 colon
# HOP-62 NSCLC = test system: HOP-62 NSCLC
# MALME-3M melanoma = test system: MALME-3M melanoma
# OVCAR-4 ovarian = test system: OVCAR-4 ovarian
# OVCAR-5 ovarian = test system: OVCAR-5 ovarian
# SF-295 CNS = test system: SF-295 CNS
# SK-OV-3 ovarian = test system: SK-OV-3 ovarian
# U251 CNS = test system: U251 CNS
# UACC-257 melanoma = test system: UACC-257 melanoma
SMILES,GI50 (A549 NSCLC),TGI (A549 NSCLC),GI50 (COLO 205 colon),TGI (COLO 205 colon),GI50 (HOP-62 NSCLC),TGI (HOP-62 NSCLC),GI50 (MALME-3M melanoma),TGI (MALME-3M melanoma),GI50 (OVCAR-4 ovarian),TGI (OVCAR-4 ovarian),GI50 (OVCAR-5 ovarian),TGI (OVCAR-5 ovarian),GI50 (SF-295 CNS),TGI (SF-295 CNS),GI50 (SK-OV-3 ovarian),TGI (SK-OV-3 ovarian),GI50 (U251 CNS),TGI (U251 CNS),GI50 (UACC-257 melanoma),TGI (UACC-257 melanoma)
COc1cc(C2CC(c3cc(Cl)c(C)cc3O)=NN2c2ccc(S(N)(=O)=O)cc2)cc(OC)c1OC (stereo not drawn),4000 nM,15.5 µM,1.72 µM,3.09 µM,2.1 µM,4.56 µM,2080 nM,4.89 µM,3.47 µM,> 100 µM,1870 nM,4.28 µM,1800 nM,3.96 µM,3.71 µM,11.4 µM,2840 nM,8.89 µM,4.13 µM,15.2 µM
CCC1C(=O)OCc2c1cc1n(c2=O)Cc2ccccc2-1 (stereo not drawn),,> 100 µM,,,,> 100 µM,,> 100 µM,,> 100 µM,,> 100 µM,,> 100 µM,,,,,,> 100 µM
O=C(/C=C/c1ccc(OCCCOc2ccc(/C=C/C(=O)c3ccc(Cl)cc3)cc2)cc1)c1ccc(Cl)cc1,,> 100 µM,,> 100 µM,,> 100 µM,,> 100 µM,,> 100 µM,,> 100 µM,,> 100 µM,,> 100 µM,,> 100 µM,,> 100 µM
NC(=O)COc1ccc(Br)cc1Br,,> 100 µM,,> 100 µM,,> 100 µM,,> 100 µM,,,,> 100 µM,,> 100 µM,,> 100 µM,,> 100 µM,,> 100 µM
Cc1c(-c2ccnc(N)n2)c2c(n1-c1ccccc1)C(=O)c1ccccc1C2=O,36100 nM,> 100 µM,44 µM,> 100 µM,6.61 µM,37.6 µM,,,58.3 µM,> 100 µM,23400 nM,97.5 µM,14000 nM,30.7 µM,39.3 µM,> 100 µM,18900 nM,74.9 µM,34.2 µM,91.9 µM
NS(=O)(=O)c1ccc(N=Nc2cc3ccccc3c(C(=O)O)c2O)cc1,,> 100 µM,,> 100 µM,,> 100 µM,,> 82 µM,,> 80.9 µM,,> 94.5 µM,,> 100 µM,,> 100 µM,,> 95.2 µM,,> 92.3 µM
Cn1ccnc1C(=O)/C=C/c1ccc(CC(=O)Nc2cc(F)c(F)c(F)c2)cc1,1570 nM,20.2 µM,2.53 µM,7.08 µM,1.17 µM,4.94 µM,3650 nM,10.8 µM,2.25 µM,> 25 µM,3630 nM,9.39 µM,6630 nM,> 25 µM,5.59 µM,> 25 µM,837 nM,3.2 µM,3.59 µM,10.1 µM
Nc1ccc(Sc2ccc3c4c2cccc4c(=O)n2c4ccccc4nc32)cc1,2170 nM,12.9 µM,7.24 µM,27.2 µM,4.34 µM,17.2 µM,3120 nM,16.9 µM,6.93 µM,28.8 µM,14900 nM,46 µM,2380 nM,8.01 µM,5.63 µM,37.2 µM,4130 nM,20.6 µM,11.8 µM,43.5 µM
C/C(=C\COc1ccc2ccc(=O)oc2c1)CCC(=O)C(C)(C)O,,> 100 µM,,44.4 µM,,> 100 µM,,> 100 µM,,> 100 µM,,> 100 µM,,> 100 µM,,99.4 µM,,47.4 µM,,> 100 µM
COc1ccc(OC)c(/C=C/C(=O)c2ccc(SC)cc2)c1,28900 nM,> 100 µM,5.57 µM,> 100 µM,18.4 µM,52.3 µM,,,61.1 µM,> 100 µM,18300 nM,36.4 µM,5050 nM,57 µM,8.07 µM,> 100 µM,12700 nM,26.9 µM,16.9 µM,33.8 µM
C/C(CC(=O)Nc1cc(Cl)c(Cl)cc1Cl)=N\NS(=O)(=O)c1ccc(C)cc1,,> 100 µM,,61.1 µM,,> 100 µM,,> 100 µM,,,,> 100 µM,,> 100 µM,,> 100 µM,,> 100 µM,,> 100 µM
Cc1nc(=O)n2c(c1C(=O)Nc1ccc(Cl)cc1)NCCC2,,> 100 µM,,> 100 µM,,> 100 µM,,> 100 µM,,> 100 µM,,> 100 µM,,> 100 µM,,> 100 µM,,> 100 µM,,
O=C(CN1CCN(c2cc3c(cc2F)c(=O)c(C(=O)O)cn3C2CC2)CC1)Nc1ccc(C(=O)/C=C/c2ccccc2)cc1,,,36.3 µM,> 100 µM,4.46 µM,> 100 µM,2890 nM,8.87 µM,9.47 µM,> 100 µM,5350 nM,> 100 µM,2110 nM,6.25 µM,27.3 µM,> 100 µM,2920 nM,> 100 µM,3.9 µM,90.8 µM
COc1cccc(C2N3CCCCC3[C@@H]3c4[nH]c5ccccc5c4CCN23)c1OC (stereo partly drawn),,29.9 µM,,29.2 µM,,29.4 µM,,,,31.5 µM,,29.4 µM,,31.6 µM,,31.4 µM,,30.9 µM,,30.1 µM
CC(=O)OC1CC2C(C)(C)C(=O)C=C[C@]2(C)C2CCC3(C)C(=CCC3[C@H](CO)C[C@H](O)C(=O)C(C)(C)O)[C@]12C (stereo partly drawn),,79.3 µM,,> 100 µM,,,,33.3 µM,,> 100 µM,,83.3 µM,,27.7 µM,,48.2 µM,,31.5 µM,,30.8 µM
O=C1/C(=C/c2ccc(Cl)cc2)COc2ccc(Br)cc21,,> 100 µM,,> 100 µM,,> 100 µM,,> 100 µM,,,,> 100 µM,,> 100 µM,,> 100 µM,,> 100 µM,,> 100 µM
Clc1ccc2c(NCCNc3nc(Cl)nc4ccccc34)ccnc2c1,1400 nM,3.04 µM,0.863 µM,2.32 µM,0.56 µM,2.09 µM,1760 nM,3.47 µM,0.323 µM,1.22 µM,1620 nM,3.09 µM,1750 nM,3.26 µM,1.82 µM,3.35 µM,,,1.89 µM,3.54 µM

SMILES,GI50 (A549 NSCLC),TGI (A549 NSCLC),GI50 (COLO 205 colon),TGI (COLO 205 colon),GI50 (HOP-62 NSCLC),TGI (HOP-62 NSCLC),GI50 (MALME-3M melanoma),TGI (MALME-3M melanoma),GI50 (OVCAR-4 ovarian),TGI (OVCAR-4 ovarian),GI50 (OVCAR-5 ovarian),TGI (OVCAR-5 ovarian),GI50 (SF-295 CNS),TGI (SF-295 CNS),GI50 (SK-OV-3 ovarian),TGI (SK-OV-3 ovarian),GI50 (U251 CNS),TGI (U251 CNS),GI50 (UACC-257 melanoma),TGI (UACC-257 melanoma)
Cc1ccc(/C=C2\CN(C(=O)CCN3CCC(=NO)CC3)C/C(=C\c3ccc(C)cc3)C2=O)cc1,2430 nM,7.68 µM,,,,,,,,,1790 nM,3.47 µM,,,,,,,,
c1cc[c]([Sn]([O]c2cccc3cccnc23)([c]2ccccc2)[c]2ccccc2)cc1,18.4 nM,0.0427 µM,0.0161 µM,0.0302 µM,0.0482 µM,0.145 µM,,,0.0146 µM,0.0343 µM,11.9 nM,0.0424 µM,30.6 nM,0.0761 µM,0.0192 µM,0.038 µM,18.4 nM,0.0374 µM,0.0334 µM,0.117 µM
COc1ccccc1NC(=O)NS(=O)(=O)c1ccccc1,,> 100 µM,,> 100 µM,,> 100 µM,,> 100 µM,,> 100 µM,,> 100 µM,,> 100 µM,,,,> 100 µM,,> 100 µM
NC(=S)c1cn(C2OC(CO)C(O)C2O)c2ncnc(N)c12 (stereo not drawn),266 nM,> 100 µM,,,0.065 µM,1.95 µM,27.9 nM,0.125 µM,0.081 µM,4.21 µM,353 nM,,287 nM,3.07 µM,,,292 nM,8.71 µM,0.166 µM,0.571 µM
COC(=O)C1=C(C)NC(C)=C(C(=O)OC)C1c1ccccc1[N+](=O)[O-],> 100000 nM,> 100 µM,89 µM,> 100 µM,> 100 µM,> 100 µM,> 100000 nM,> 100 µM,61.9 µM,> 100 µM,> 100000 nM,> 100 µM,57800 nM,> 100 µM,> 100 µM,> 100 µM,> 100000 nM,> 100 µM,,
CC(C)=CCCC1(C)C=Cc2c(ccc3c2[nH]c2cc(O)c(C)cc23)O1 (stereo not drawn),6590 nM,17.5 µM,,> 2.5 µM,4.74 µM,8.71 µM,5200 nM,11 µM,,> 25 µM,,> 25 µM,,,,> 2.5 µM,4530 nM,8.03 µM,,
O=C1/C(=C/c2ccccc2)CN(C(=O)Oc2ccccc2)C/C1=C\c1ccccc1,,> 100 µM,,> 100 µM,,39.7 µM,,> 100 µM,,> 100 µM,,> 100 µM,,34.1 µM,,,,> 100 µM,,> 100 µM
CCc1cc2c(c3[nH]ccc13)[C@@H](C)C[C@H]2C,,42.2 µM,,38.1 µM,,,,35.4 µM,,,,,,35.2 µM,,54.9 µM,,31.6 µM,,39.9 µM
C/C(=N/OCCC(=O)O)C1CC1,,> 100 µM,,> 100 µM,,> 100 µM,,> 100 µM,,> 100 µM,,,,> 100 µM,,> 100 µM,,> 100 µM,,
Cc1ccc(S(=O)(=O)N/N=C/CN2C(=O)c3ccccc3C2=O)cc1,,> 100 µM,,> 100 µM,,> 100 µM,,> 100 µM,,> 100 µM,,,,> 100 µM,,,,> 100 µM,,> 100 µM
CC(=O)[O-].CC(=O)[O-].CC(=O)[O-].CC(=O)[O-].CO.CO.CO.[Rh+2].[Rh+2].c1ccc(-c2ccccn2)nc1,> 100000 nM,> 100 µM,> 100 µM,> 100 µM,> 100 µM,> 100 µM,,,> 100 µM,> 100 µM,> 100000 nM,> 100 µM,> 100000 nM,> 100 µM,> 100 µM,> 100 µM,> 100000 nM,> 100 µM,> 100 µM,> 100 µM
O=C(c1nc2ccccc2[nH]1)C1C(c2cccc([N+](=O)[O-])c2)C2CC3CCCCC3N2[C@@]12C(=O)Nc1cc(Cl)ccc12 (stereo partly drawn),2340 nM,6.88 µM,,,1.86 µM,4.62 µM,1420 nM,2.96 µM,2.08 µM,8.87 µM,1480 nM,3.11 µM,1560 nM,3.58 µM,,,,,1.9 µM,6.09 µM
c1ccc2c(Nc3ccc4c(c3)OCO4)c3ccoc3nc2c1,6960 nM,35.8 µM,20.2 µM,> 100 µM,15.4 µM,32.3 µM,15900 nM,34.3 µM,29.4 µM,> 100 µM,25900 nM,60.9 µM,14700 nM,34.3 µM,22.7 µM,99.7 µM,17600 nM,41.3 µM,,
N#CCCCCCn1c2ccccc2c2c3c(c4c5ccccc5[nH]c4c21)C(=O)N(O)C3=O,2780 nM,8.12 µM,1.85 µM,4.36 µM,0.468 µM,2.79 µM,1960 nM,5.01 µM,1.9 µM,13 µM,,,2440 nM,6.95 µM,2.55 µM,19.4 µM,435 nM,1.57 µM,1.95 µM,5.45 µM
CC1(C)CC(=O)C=C(NC(=O)c2ccccc2)C1,,> 100 µM,,> 100 µM,,> 100 µM,,> 100 µM,,> 100 µM,,,,> 100 µM,,> 100 µM,,> 100 µM,,> 100 µM
CCC(C)Cn1c(C)nc2c1C(=O)c1ccccc1C2=O (stereo not drawn),,> 100 µM,,87.5 µM,,> 100 µM,,73.7 µM,,> 100 µM,,,,> 100 µM,,> 100 µM,,> 100 µM,,62.3 µM
C=C1C(=O)O[C@H]2[C@H]1CC/C(COC(=O)c1ccc(Br)cc1)=C\CC[C@@]1(C)O[C@@H]21,1960 nM,4.56 µM,1.79 µM,3.51 µM,,,,,1.57 µM,3.68 µM,1680 nM,3.62 µM,1670 nM,3.57 µM,14.8 µM,28.1 µM,1550 nM,2.98 µM,1.65 µM,3.35 µM
